Experimental data: paper PMC12383145, “Fluorescent Peptides Internalize HeLa Cells and Kill Multidrug-Resistant Clinical Bacterial Isolates” (Antibiotics, 2025)
Residues, ends and D or L forms follow the SMILES beside them. *: point of attachment. RhodamineB = CCN(CC)c1ccc2c(-c3ccccc3C(=O)*)c3ccc(=[N+](CC)CC)cc-3oc2c1

What was measured:
Assay type in all cases: cell-based
MCF-7 cells = test: MTT cytotoxicity assay in MCF-7 cells; conditions: 200 µg/mL, 2 h
Experimental: An MTT assay was performed in MCF-7 cells with FAM-1 (FAM-RWQWRWQWR) and RhB-1 (RhB-RWQWRWQWR) peptides following a 2 h treatment.

[1] = system: S. aureus clinical isolate 11719; conditions: clinical isolate 11719, 24 h
HeLa cells [2] = test: Fluorescence confocal microscopy, colocalization analysis (ImageJ JaCoP); conditions: 2 h at IC50, colocalization with SMA antibody
Experimental: The possible cellular distribution of the peptides was determined by colocalization analysis of the Rhodamine B fluorescent signal, with fluorophores used to stain the nucleus (Hoechst 33342) and cytoplasm components (SMA antibody). ImageJ 1.54f analysis software and the JaCoP plugin were used to analyze signal colocalization.
HeLa cells (>70% confluence) were seeded on sterile round coverslips in 24-well plates with DMEM + 5% FBS and incubated at 37 °C, 5% CO2 for 24 h. After adhesion, the medium was replaced, and cells were treated with fluorescent peptides at their IC50 for 2 h. Then, cells were washed with PBS under constant stirring (3 × 10 min). Cellular fixation was performed using a solution containing 2% paraformaldehyde and 1% sucrose 100 mM in PBS for 30 min, followed by PBS washes (2 × 10 min). Permeabilization was carried out using a solution of 0.1% Triton X-100 and 20 mM glycine in PBS for 10 min, followed by two additional PBS washes. Blocking was performed with 1% BSA and 20 mM glycine in PBS for 10 min. […] For the fluorescence lecture, 5 µL of Fluoromount mounting medium was applied to the slide, and the coverslip containing the cells was inverted onto the medium. Slides were allowed to be dry-protected from light, and cells were visualized using a Leica DMi8 fluorescence confocal microscope. […]

P. aeruginosa ATCC 27853 = conditions: ATCC 27853, 24 h
[3] = system: K. pneumoniae ATCC 700603; conditions: ATCC 700603, 24 h
S. aureus ATCC 25923 = conditions: ATCC 25923, 24 h
E. coli ATCC 25922 = conditions: ATCC 25922, 24 h
E. faecalis ATCC 29212 = conditions: ATCC 29212, 24 h
HeLa cells [4] = test: Micrographs of cell morphology after peptide treatment; conditions: 100 µg/mL, 2 h, 37 °C
Excerpt: Despite these pronounced morphological alterations, there was no evidence of cell rupture, membrane disintegration, or the presence of cell fragments, indicating the absence of necrotic processes. […] Green arrows indicate normal morphologies, such as cytoplasmic elongations and polygonal shapes. Red arrows indicate morphological changes induced by the peptides, including cell rounding, shrinkage, and loss of cytoplasmic projections. Scale bar: µm. The control corresponds to untreated cells.

Hemolysis assay = test: Hemolysis assay
erythrocytes = test: Hemolysis assay; conditions: 2 h

Minimal inhibitory concentration (MIC) [1]: 52 µM
Minimal inhibitory concentration (MIC) (P. aeruginosa ATCC 27853): > 105 µM
Minimal inhibitory concentration (MIC) [3]: > 105 µM
Minimal inhibitory concentration (MIC) (S. aureus ATCC 25923): 26 µM
Minimal inhibitory concentration (MIC) (E. coli ATCC 25922): > 105 µM
Minimal inhibitory concentration (MIC) (E. faecalis ATCC 29212): 52 µM
Structure (SMILES): CCN(CC)c1ccc2c(-c3ccccc3C(=O)N[C@@H](CCCNC(=N)N)C(=O)N[C@@H](Cc3c[nH]c4ccccc34)C(=O)N[C@@H](CCC(N)=O)C(=O)N[C@@H](Cc3c[nH]c4ccccc34)C(=O)N[C@@H](CCCNC(=N)N)C(=O)N[C@@H](Cc3c[nH]c4ccccc34)C(=O)N[C@@H](CCC(N)=O)C(=O)N[C@@H](Cc3c[nH]c4ccccc34)C(=O)N[C@@H](CCCNC(=N)N)C(N)=O)c3ccc(=[N+](CC)CC)cc-3oc2c1 [RhB-1, RhB-RWQWRWQWR] (RhodamineB-RWQWRWQWR-NH2)
cell population remaining (MCF-7 cells): 8%
Minimal bactericidal concentration (MBC) [1]: 105 µM
cellular localization (HeLa cells [2]): internalized and distributed in the cytoplasm
Minimal bactericidal concentration (MBC) (P. aeruginosa ATCC 27853): > 105 µM
Minimal bactericidal concentration (MBC) [3]: > 105 µM
Minimal bactericidal concentration (MBC) (S. aureus ATCC 25923): 52 µM
Minimal bactericidal concentration (MBC) (E. coli ATCC 25922): > 105 µM
Minimal bactericidal concentration (MBC) (E. faecalis ATCC 29212): 52 µM
morphological changes (HeLa cells [4]): appeared smaller, rounded, and contained vacuoles
selectivity ratio (Hemolysis assay): 0.2
hemolysis (Hemolysis assay; Percentage of hemolysis): 19%
Therapeutic index (erythrocytes): 0.5
